The values that follow come from patent EP0880540B1, “17-BETA-CYCLOPROPYL(AMINO/OXY) 4-AZA STEROIDS AS ACTIVE INHIBITORS OF TESTOSTERONE 5-ALPHA-REDUCTASE AND C17-20-LYASE” (Aventis Pharmaceuticals Inc., priority 1996, dated 1997).

The target of this experiment is T1, Rat testicular C17,20 lyase (Rattus norvegicus, UniProt P11715).
T1 construct: testes were excised, capsules were removed, and the tissue was weighed; from tissue; host or cells: testes of male Copenhagen rats (Harlan Laboratories), 10,000 x G supernatant of homogenate
T1 sequence (P11715 1-507): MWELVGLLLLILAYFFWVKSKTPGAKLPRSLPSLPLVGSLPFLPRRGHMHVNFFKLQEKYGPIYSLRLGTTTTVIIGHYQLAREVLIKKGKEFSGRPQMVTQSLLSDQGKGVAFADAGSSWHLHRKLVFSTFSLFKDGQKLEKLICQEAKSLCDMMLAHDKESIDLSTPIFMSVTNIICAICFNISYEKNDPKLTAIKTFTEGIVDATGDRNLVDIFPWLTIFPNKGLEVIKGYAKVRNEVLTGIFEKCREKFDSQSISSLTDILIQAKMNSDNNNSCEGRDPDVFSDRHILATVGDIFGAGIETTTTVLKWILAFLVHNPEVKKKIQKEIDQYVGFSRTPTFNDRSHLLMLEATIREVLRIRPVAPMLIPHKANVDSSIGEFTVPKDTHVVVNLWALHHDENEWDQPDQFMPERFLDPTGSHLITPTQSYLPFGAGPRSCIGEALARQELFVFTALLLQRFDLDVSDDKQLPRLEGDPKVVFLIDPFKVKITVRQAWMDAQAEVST
The experiment in a line: Ex vivo inhibition of C17,20 lyase in rat testes after dosing. On the set-up: species or system Male Copenhagen rats. On the procedure:
Ex vivo inhibition of C17,20 lyase: MDL 103,432 was tested for ex vivo inhibition of rat and nude mouse testes lyase. Male Copenhagen rats and male athymic nude mice obtained from Harlan Laboratories, Indianapolis, IN, were divided into groups of 5 to 6 based on weight. Average weight was 100-140 g each for rats and 18-35 g each for the mice. Prior to oral dosing, animals were fasted overnight. Test compound was prepared by micronization in a lecithin vehicle using a glass Teflon® pestle-type homogenizer. The compound was brought to volume using lecithin so as to administer 0.5 mL per 100 g animal. Rats and nude mice were given vehicle only (controls) or vehicle plus test compounds peros. Rats were also given the compound in lecithin or lecithin alone subcutaneously. Each group consisted of 5-6 animals. At a specified time after dosing, the animals were anesthetized with CO2 gas, sacrificed by cervical dislocation, testes were excised, capsules were removed, and the tissue was weighed. Two volumes (w/v) of 0.05 M potassium phosphate buffer, pH 7.2, was added to the rat testes tissue on ice, and 11 volumes (w/v) of the same buffer were added to the mouse testes. Tissue was then homogenized using 20 strokes with a Dounce homogenizer equipped with a tight pestle. Homogenized tissue was centrifuged at 800 x G then at 10,000 x G for 15 minutes each. Supernatant was decanted, reserved, and kept chilled on ice. Assays for lyase activity contained the same buffer and NADPH regenerating system described above and also contained […] of 10,000 x G supernatant which was diluted 3-fold resulting in a 5-fold dilution overall in the final assay volume. Substrate, 17α-hydroxyprogesterone plus 1,3-[^3H]-17α-hydroxyprogesterone (40-57 mCi/mmole; 0.18 µCi per assay) to yield a final concentration of 0.1 µM, (=Km) was added to the remaining assay components after a 5 minute equilibration a 20°C of the latter. The total assay volume was 200 µL. Activity was assayed for 20 seconds at 20°C. Assays were terminated, extracted and analyzed as described above except that carrier steroids were 17α-hydroxyprogesterone, androst-4-ene-dione, and testosterone. The organic phase containing the steroids was evaporated using nitrogen gas, the residues dissolved in 18% tetrahydrofuran (v/v) in hexane, and the steroid substrate, 17α-hydroxyprogesterone, and products (AED, TEST) were separated by HPLC on a Si60 (5 µm) column (250 x 4 mm) using 20% (v/v) tetrahydrofuran (THF) in hexane for 20 minutes then ramping to 60% THF (v/v) for 11 minutes. Activity of test compound was expressed as percent inhibition relative to the control and was the mean of each group of treated animals.

Regarding `CC12CCC3C(CC[C@H]4NC(=O)CCC34C)C1CC[C@@H]2OC1CC1` (stereo partly drawn) [MDL 103,432, 17β-Cyclopropyloxy-4-aza-5α-androstan-3-one], the inhibition at 50 mg/kg is, setting by setting: (po, 50 mg/kg p.o., 4 hr after dosing) 66.4%; (po, 50 mg/kg p.o., 24 hr after dosing) 52.7%; (sc, 50 mg/kg s.c., 4 hr after dosing) 32.9%; (sc, 50 mg/kg s.c., 24 hr after dosing) 40.7%.
